Source: the supplement of paper PMC10627819

Key:
S. aureus Newman = test: Bliss interaction score (quartile over a dose matrix) (fitness difference); higher = more antagonism (negative = synergy)
Summary of the method: (§1)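 Fitness here means normalised growth, inferred for single drugs from the combination data. Growth was OD595 at entry into stationary phase, divided by the plate's robust no-drug mean and capped at 1. The Bliss score is observed minus expected fitness, with the expectation being the product, and its quartiles span technical, biological and donor/recipient replicates.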

B. subtilis 168 [1] = test: as above
Summary of the method: as §1

S. pneumoniae D39V [2] = test: as above
Summary of the method: as §1

S. aureus DSM 20231 = test: as above
Summary of the method: as §1

B. subtilis 168 [3] = test: fitness (endpoint OD595 vs no drug) (fraction); higher = more growth
Summary of the method: (§2)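 Fitness expresses the optical density reached at the stationary-phase transition as a fraction of the robust mean of no-drug control wells. It is capped at 1. Measurements were OD595 every 30 min for 14 h at 37 °C after inoculation of 384-well plates at OD595 0.01 (30 µl, or 55 µl for S. pneumoniae), minus the first reading.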

S. pneumoniae D39V [4] = test: as above
Summary of the method: as §2
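Throughout, for Bliss interaction score (quartile over a dose matrix): first quartile when negative (synergy) and third quartile when positive (antagonism).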
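Throughout, for fitness (endpoint OD595 vs no drug): OD595 on entry to stationary phase over no-drug wells; at most 1.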

C[C@H]1c2cccc(O)c2C(=O)C2=C(O)[C@]3(O)C(=O)C(C(N)=O)=C(O)[C@@H](N(C)C)[C@@H]3[C@@H](O)[C@@H]21 [Doxycycline] + C[C@@H]1O[C@@H]1P(=O)(O)O [Fosfomycin]
Details	Bliss interaction score
B. subtilis 168 [1]	0.131
S. aureus DSM 20231	-0.153
S. aureus Newman	-0.113
S. pneumoniae D39V [2]	-0.096

fitness
Details	partner 1.25 µg/mL	partner 1.562 µg/mL	partner 2.5 µg/mL	partner 3.124 µg/mL	partner 5 µg/mL	partner 6.248 µg/mL
B. subtilis 168 [3], first compound 0.02 µg/mL	–	0.752	–	0.645	–	0.556
B. subtilis 168 [3], first compound 0.04 µg/mL	–	0.699	–	0.56	–	0.419
B. subtilis 168 [3], first compound 0.08 µg/mL	–	0.5	–	0.364	–	0.253
S. pneumoniae D39V [4], first compound 0.0155 µg/mL	0.894	–	0.862	–	0.791	–
S. pneumoniae D39V [4], first compound 0.031 µg/mL	0.799	–	0.804	–	0.742	–

fitness, S. pneumoniae D39V [4], one replicate
Details	partner 1.25 µg/mL	partner 2.5 µg/mL	partner 5 µg/mL
first compound 0.003875 µg/mL	0.969	0.883	0.753
first compound 0.00775 µg/mL	0.97	0.915	0.814

C[C@H]1c2cccc(O)c2C(=O)C2=C(O)[C@]3(O)C(=O)C(C(N)=O)=C(O)[C@@H](N(C)C)[C@@H]3[C@@H](O)[C@@H]21 [Doxycycline] + C[C@H]1COc2c(N3CCN(C)CC3)c(F)cc3c(=O)c(C(=O)O)cn1c23 [Levofloxacin]
Details	Bliss interaction score
B. subtilis 168 [1]	0.043
S. aureus DSM 20231	0.075
S. aureus Newman	0.0574
S. pneumoniae D39V [2]	0.0649

fitness, one replicate
Details	first compound 0.003875 µg/mL	first compound 0.00775 µg/mL	first compound 0.02 µg/mL	first compound 0.031 µg/mL	first compound 0.04 µg/mL	first compound 0.062 µg/mL	first compound 0.08 µg/mL
B. subtilis 168 [3], partner 0.001 µg/mL	–	–	0.929	–	0.859	–	0.735
B. subtilis 168 [3], partner 0.0078 µg/mL	–	–	0.989	–	0.859	–	0.712
S. pneumoniae D39V [4], partner 0.2 µg/mL	0.984	0.927	–	0.822	–	0.712	–
S. pneumoniae D39V [4], partner 0.4 µg/mL	0.858	0.838	–	0.816	–	0.687	–
S. pneumoniae D39V [4], partner 0.8 µg/mL	0.581	0.62	–	0.697	–	0.595	–

Details	fitness
B. subtilis 168 [3], first compound 0.02 µg/mL, partner 0.002 µg/mL	0.937
B. subtilis 168 [3], first compound 0.02 µg/mL, partner 0.0039 µg/mL	0.939
B. subtilis 168 [3], first compound 0.02 µg/mL, partner 0.0312 µg/mL	0.0328
B. subtilis 168 [3], first compound 0.02 µg/mL, partner 0.0625 µg/mL	0.0358
B. subtilis 168 [3], first compound 0.02 µg/mL, partner 0.125 µg/mL	0.0474
B. subtilis 168 [3], first compound 0.04 µg/mL, partner 0.002 µg/mL	0.784
B. subtilis 168 [3], first compound 0.04 µg/mL, partner 0.0039 µg/mL	0.817
B. subtilis 168 [3], first compound 0.04 µg/mL, partner 0.0312 µg/mL	0.0347
B. subtilis 168 [3], first compound 0.04 µg/mL, partner 0.0625 µg/mL	0.032
B. subtilis 168 [3], first compound 0.04 µg/mL, partner 0.125 µg/mL	0.0298
B. subtilis 168 [3], first compound 0.08 µg/mL, partner 0.002 µg/mL	0.656
B. subtilis 168 [3], first compound 0.08 µg/mL, partner 0.0039 µg/mL	0.681
B. subtilis 168 [3], first compound 0.08 µg/mL, partner 0.0312 µg/mL	0.0307
B. subtilis 168 [3], first compound 0.08 µg/mL, partner 0.0625 µg/mL	0.0405
B. subtilis 168 [3], first compound 0.08 µg/mL, partner 0.125 µg/mL	0.0329
S. pneumoniae D39V [4], first compound 0.0155 µg/mL, partner 0.1725 µg/mL	0.895
S. pneumoniae D39V [4], first compound 0.0155 µg/mL, partner 0.2 µg/mL	0.946
S. pneumoniae D39V [4], first compound 0.0155 µg/mL, partner 0.345 µg/mL	0.805
S. pneumoniae D39V [4], first compound 0.0155 µg/mL, partner 0.4 µg/mL	0.887
S. pneumoniae D39V [4], first compound 0.0155 µg/mL, partner 0.69 µg/mL	0.584
S. pneumoniae D39V [4], first compound 0.0155 µg/mL, partner 0.8 µg/mL	0.677
S. pneumoniae D39V [4], first compound 0.031 µg/mL, partner 0.1725 µg/mL	0.889
S. pneumoniae D39V [4], first compound 0.031 µg/mL, partner 0.345 µg/mL	0.795
S. pneumoniae D39V [4], first compound 0.031 µg/mL, partner 0.69 µg/mL	0.485
S. pneumoniae D39V [4], first compound 0.062 µg/mL, partner 0.1725 µg/mL	0.873
S. pneumoniae D39V [4], first compound 0.062 µg/mL, partner 0.345 µg/mL	0.775
S. pneumoniae D39V [4], first compound 0.062 µg/mL, partner 0.69 µg/mL	0.652
